According to PubChem BioAssay (NCI):
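Cultured in 96-well plates, cells were exposed to test compound for 48 hours across five concentrations. GI50: concentration for 50% inhibition of growth. TGI: concentration producing complete growth inhibition.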

What was measured:
Assay in all cases: NCI tumour cell line growth inhibition, 48 h
KM20L2 colon = test system: KM20L2 colon
HCT-116 colon = test system: HCT-116 colon
RXF 393 renal = test system: RXF 393 renal
MDA-MB-231 breast = test system: MDA-MB-231 breast
DMS 273 small cell lung = test system: DMS 273 small cell lung
HCC-2998 colon = test system: HCC-2998 colon
P388/ADR leukemia = test system: P388/ADR leukemia
HOP-18 NSCLC = test system: HOP-18 NSCLC
UO-31 renal = test system: UO-31 renal
CAKI-1 renal = test system: CAKI-1 renal
SN12C renal = test system: SN12C renal
IGROV1 ovarian = test system: IGROV1 ovarian
OVCAR-4 ovarian = test system: OVCAR-4 ovarian
SK-MEL-5 melanoma = test system: SK-MEL-5 melanoma
PC-3 prostate = test system: PC-3 prostate
MDA-N = test system: MDA-N
MALME-3M melanoma = test system: MALME-3M melanoma
COLO 205 colon = test system: COLO 205 colon
786-0 renal = test system: 786-0 renal
NCI-H522 lung = test system: NCI-H522 lung
SR leukemia = test system: SR leukemia
SK-OV-3 ovarian = test system: SK-OV-3 ovarian
A498 renal = test system: A498 renal
NCI/ADR-RES ovarian = test system: NCI/ADR-RES ovarian
SNB-78 CNS = test system: SNB-78 CNS
HCT-15 colon = test system: HCT-15 colon
SK-MEL-28 melanoma = test system: SK-MEL-28 melanoma
CCRF-CEM leukemia = test system: CCRF-CEM leukemia
P388 leukemia = test system: P388 leukemia
BT-549 breast = test system: BT-549 breast
HL-60(TB) leukemia = test system: HL-60(TB) leukemia
NCI-H23 lung = test system: NCI-H23 lung
TK-10 renal = test system: TK-10 renal
XF 498 CNS = test system: XF 498 CNS
ACHN renal = test system: ACHN renal

## COC1C(OC(=O)/C=C/C=C/C=C/C=C/C(=O)O)CCC2(CO2)C1C1(C)OC1CC=C(C)C (stereo not drawn)
KM20L2 colon
  TGI: > 100 µM
HCT-116 colon
  GI50: 0.12 µM
  TGI: > 100 µM
RXF 393 renal
  GI50: 0.265 µM
MDA-MB-231 breast
  GI50: 0.525 µM
  TGI: 80.5 µM
DMS 273 small cell lung
  TGI: > 100 µM
HCC-2998 colon
  GI50: 0.231 µM
  TGI: > 71.4 µM
P388/ADR leukemia
  TGI: > 49.2 µM
HOP-18 NSCLC
  TGI: 94.8 µM
UO-31 renal
  TGI: > 82.2 µM
CAKI-1 renal
  GI50: 0.414 µM
  TGI: > 100 µM
SN12C renal
  GI50: 0.225 µM
IGROV1 ovarian
  TGI: > 95.1 µM
OVCAR-4 ovarian
  GI50: 0.184 µM
  TGI: > 87 µM
SK-MEL-5 melanoma
  GI50: 0.271 µM
  TGI: > 64.9 µM
PC-3 prostate
  TGI: 73.1 µM
MDA-N
  GI50: 0.246 µM
  TGI: > 100 µM
MALME-3M melanoma
  GI50: 0.45 µM
  TGI: > 75.3 µM
COLO 205 colon
  GI50: 0.157 µM
  TGI: 26.1 µM
786-0 renal
  GI50: 0.31 µM
  TGI: > 100 µM
NCI-H522 lung
  GI50: 0.137 µM
SR leukemia
  GI50: 0.22 µM
  TGI: 67.6 µM
SK-OV-3 ovarian
  TGI: > 84.5 µM
A498 renal
  TGI: > 100 µM
NCI/ADR-RES ovarian
  TGI: 97.7 µM
SNB-78 CNS
  TGI: > 100 µM
HCT-15 colon
  GI50: 0.296 µM
  TGI: > 93.9 µM
SK-MEL-28 melanoma
  GI50: 0.442 µM
  TGI: > 100 µM
CCRF-CEM leukemia
  GI50: 0.386 µM
  TGI: 78.1 µM
P388 leukemia
  TGI: 29.1 µM
BT-549 breast
  GI50: 0.268 µM
  TGI: > 100 µM
HL-60(TB) leukemia
  GI50: 0.187 µM
  TGI: 70.6 µM
NCI-H23 lung
  GI50: 0.193 µM
  TGI: > 83.7 µM
TK-10 renal
  TGI: > 100 µM
XF 498 CNS
  TGI: > 100 µM
ACHN renal
  GI50: 0.373 µM
  TGI: 49 µM
